From patent publication US6048892A, “Ester compound pesticide containing thereof” (Sumitomo Chemical Company, Limited, priority 1999, dated 2000) come the findings set out here.

In general, mortality refers to the percentage killed. Broadly, the LD50 is the dose expected to kill half of the subjects tested. Read a high LD50 as a less toxic substance.

The structures appear in SMILES notation.

Data set [1] concerns brown planthopper (Nilaparvata lugens). The data set can be described thus: Biological Test 2: mortality of larvae on dipped rice plant stalk. To be noted: 144 h, read-out: mortality of the larvae. Type of data set: in vivo. The protocol: A stalk of a rice plant was dipped for one minute in a 500 ppm aqueous emulsion obtained by diluting each emulsifiable concentrate of the present compounds prepared according to the formulation example 1. The rice plant stalk was air-dried and placed in a polyethylene cup (diameter: 5.5 cm) where filter paper (diameter: 5.5 cm) impregnated with 1 ml of water was put. Approximately 30 larvae of brown planthopper (Nilaparvata lugens) were put in the polyethylene cup. After 6 days, the mortality of the larvae was examined.

Data set [2] concerns houseflies (Musca domestica). As to the kind of experiment: Biological Test 4: mortality of female houseflies low sensitive to pyrethroids, treated filter paper. The data set is classed as in vivo. Particulars: 24 h. How it is done:
Filter paper of 5.5 cm in diameter was laid in the bottom of a polyethylene cup (diameter: 5.5 cm). After 0.7 ml of a 500 ppm aqueous emulsion obtained by diluting each emulsifiable concentrate prepared according to the formulation example 1 was dropped on the filter paper and approximately 30 mg of sucrose as bait was uniformly scattered. Ten female houseflies (Musca domestica), which were low sensitive to pyrethroids, were left in the cup with a cover. After one day, the mortality was examined.

The subject of data set [3] is webbing clothes moth (Tineola bisselliella). As to the kind of experiment: Biological Test 12: topical application to larvae of webbing clothes moth, mortality and fabric damage. Type of data set: in vivo. How it is done: Each of the present compounds diluted with acetone to a predetermined concentration was applied to ten middle instar larvae of webbing clothes moth (Tineola bisselliella) at the central part of the back so as to give the active ingredient in a dose of 3 μg/insect. A wool muslin fabric (2 cm×2 cm in size) was given to the webbing clothes moths as the food. After 7 days, the mortality and the degree of damage of the wool muslin fabric by the moths were examined (two replicate).

Data set [4] can be described thus: Toxicity Test: acute oral LD50. To be noted: rat, in vivo, corn oil, fasted male 7-week old rats, after 7 days. The protocol: After subjecting the rats to a twenty-hour fasting, 0.1 ml of the diluted solution per 10 g weight was forcibly applied into the stomach of four male 7-week old rats. The rats were given food and water four hours after the application and thereafter regularly fed and watered, and kept in a cage. After 7 days, the mortality was examined for the rats and LD50 was calculated.

For `Cc1ccc(COC(=O)[C@@H]2[C@H](/C=C(\Cl)C(F)(F)F)C2(C)C)o1` (relative stereo) [Compound (1), 5-methyl-2-furfuryl (1RS,cis)-3-(Z-2-chloro-3,3,3-trifluoroprop-1-enyl)-2,2-dimethylcyclopropanecarboxylate], the mortality at 500 ppm in data set [1] was at least 90%; in data set [2] it was 100%. Also, the “degree of damage of the wool muslin fabric” value in data set [3] (3 μg/insect, after 7 days) is listed as “no damage”. Besides, in data set [3] (Tineola bisselliella, 168 h), the mortality at 0.003 mg was 100%. The compound further yielded a median lethal dose (LD50) at 168 h in data set [4] of 300 mg/kg.
